Results reported in patent US9950002B2, “Nanoparticles/theranostic vehicles” (Regents of the University of Minnesota, priority 2013, dated 2018).

Test system: BBMVE cell monolayer challenged with DutchAβ40
Assay: Cytokines inhibition study (IL-6, IL-1β, TNF-α ELISA)
Type: cell-based, bovine
Conditions: 24 hr; TNV=1.74 mg/ml, DutchAβ40=25 μg/ml, cyclophosphamide=3.05 mg/ml
Method: At the end of 24 hour treatment, the luminal or abluminal solutions of the control and the treated Transwells® was assayed for IL-6, IL-1β and TNF-α using cytokine enzyme linked immunosorbent assay (ELISA) kit (Thermo Scientific, Rockford, Ill.). The cytokine levels secreted by the control BBMVE cell monolayer incubated with hanks balanced salt solution (HBSS) were used as the baseline values.

O=P1(N(CCCl)CCCl)NCCCO1 (stereo not shown) [cyclophosphamide]
secretion of IL-6, IL-1β and TNF-α triggered by DutchAβ40, luminal side: significant decrease
